This note sets out measurements from patent EP1247803A2, “Indolinone compounds suitable for modulation of protein kinases” (Sugen, Inc., priority 1996, dated 1998).

Structures are written as SMILES.

For one experiment, the target named is PDGF-R (Homo sapiens, UniProt P09619). In words: PDGF-R ELISA. Format: cell-based. An excerpt:
A PDGF-R ELISA is described in International Patent Publication No. WO 96/40116, published December 19, 1996 by Tang et al.
On the technique in general: In an ELISA, binding on a coated surface is turned into a signal by an enzyme label.

The next experiment concerns the target T1, EGFR (Homo sapiens, UniProt P00533).
T1 construct: Add 7 ug A431 cell lysate per well (EGFR source); endogenous in cells; host or cells: A431
In words: EGFR ELISA assay (in vitro kinase activity, EGFR captured from A431 cell lysate). Format: biochemical. Set-up: concentration or dose not given beside the values. A digest of the protocol: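 EGFR from A431 lysate was captured on plates coated with anti-EGFR antibody. Compounds were added 30 min before a 5 min phosphorylation with 3 µM ATP/5 mM MnCl2, which was stopped with 20 mM EDTA. Phosphotyrosine was detected with rabbit anti-phosphotyrosine, then a peroxidase-conjugated secondary and ABTS/H2O2, read at 410 nm.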

The subject of the next experiment is MET. In words: MET biochemical kinase assay. On the set-up: species or system human; concentration or dose not given beside the values. A digest of the protocol: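 Immunocaptured MET autophosphorylation, read colorimetrically (TMB) via HRP anti-phosphotyrosine antibody. Kinase reaction initiated with buffer containing ATP and divalent metals after compound addition to plate-bound receptor from lysates.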

Chain of PDGF-R (P09619 33-1106, species assumed): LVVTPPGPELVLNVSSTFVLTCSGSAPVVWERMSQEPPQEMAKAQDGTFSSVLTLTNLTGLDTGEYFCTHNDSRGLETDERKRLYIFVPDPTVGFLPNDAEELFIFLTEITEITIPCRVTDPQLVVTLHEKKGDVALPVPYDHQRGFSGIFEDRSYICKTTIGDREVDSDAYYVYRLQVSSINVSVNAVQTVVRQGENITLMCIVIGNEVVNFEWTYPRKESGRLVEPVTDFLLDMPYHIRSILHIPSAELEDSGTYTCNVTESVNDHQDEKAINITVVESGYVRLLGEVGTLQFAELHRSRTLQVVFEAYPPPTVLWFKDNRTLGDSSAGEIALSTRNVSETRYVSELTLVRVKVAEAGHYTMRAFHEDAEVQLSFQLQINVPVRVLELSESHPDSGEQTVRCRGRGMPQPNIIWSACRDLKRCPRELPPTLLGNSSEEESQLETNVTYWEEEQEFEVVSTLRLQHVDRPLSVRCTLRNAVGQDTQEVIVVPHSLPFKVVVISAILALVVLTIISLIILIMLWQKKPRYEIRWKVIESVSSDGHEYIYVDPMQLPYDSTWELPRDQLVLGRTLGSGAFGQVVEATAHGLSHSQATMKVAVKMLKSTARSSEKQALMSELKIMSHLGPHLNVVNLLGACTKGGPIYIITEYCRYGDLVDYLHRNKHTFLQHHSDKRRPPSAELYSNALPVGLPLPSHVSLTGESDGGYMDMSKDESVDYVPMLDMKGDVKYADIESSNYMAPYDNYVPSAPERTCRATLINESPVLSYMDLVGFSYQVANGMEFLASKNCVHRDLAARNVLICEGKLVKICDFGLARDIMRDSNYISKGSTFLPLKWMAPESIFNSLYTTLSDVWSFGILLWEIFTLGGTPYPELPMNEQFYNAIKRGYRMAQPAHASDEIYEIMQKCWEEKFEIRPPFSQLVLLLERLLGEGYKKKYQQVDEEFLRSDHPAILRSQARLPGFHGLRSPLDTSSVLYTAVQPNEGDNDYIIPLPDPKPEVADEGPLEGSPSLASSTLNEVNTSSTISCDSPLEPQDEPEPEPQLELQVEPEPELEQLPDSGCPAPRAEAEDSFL
T1 sequence (P00533 25-1210): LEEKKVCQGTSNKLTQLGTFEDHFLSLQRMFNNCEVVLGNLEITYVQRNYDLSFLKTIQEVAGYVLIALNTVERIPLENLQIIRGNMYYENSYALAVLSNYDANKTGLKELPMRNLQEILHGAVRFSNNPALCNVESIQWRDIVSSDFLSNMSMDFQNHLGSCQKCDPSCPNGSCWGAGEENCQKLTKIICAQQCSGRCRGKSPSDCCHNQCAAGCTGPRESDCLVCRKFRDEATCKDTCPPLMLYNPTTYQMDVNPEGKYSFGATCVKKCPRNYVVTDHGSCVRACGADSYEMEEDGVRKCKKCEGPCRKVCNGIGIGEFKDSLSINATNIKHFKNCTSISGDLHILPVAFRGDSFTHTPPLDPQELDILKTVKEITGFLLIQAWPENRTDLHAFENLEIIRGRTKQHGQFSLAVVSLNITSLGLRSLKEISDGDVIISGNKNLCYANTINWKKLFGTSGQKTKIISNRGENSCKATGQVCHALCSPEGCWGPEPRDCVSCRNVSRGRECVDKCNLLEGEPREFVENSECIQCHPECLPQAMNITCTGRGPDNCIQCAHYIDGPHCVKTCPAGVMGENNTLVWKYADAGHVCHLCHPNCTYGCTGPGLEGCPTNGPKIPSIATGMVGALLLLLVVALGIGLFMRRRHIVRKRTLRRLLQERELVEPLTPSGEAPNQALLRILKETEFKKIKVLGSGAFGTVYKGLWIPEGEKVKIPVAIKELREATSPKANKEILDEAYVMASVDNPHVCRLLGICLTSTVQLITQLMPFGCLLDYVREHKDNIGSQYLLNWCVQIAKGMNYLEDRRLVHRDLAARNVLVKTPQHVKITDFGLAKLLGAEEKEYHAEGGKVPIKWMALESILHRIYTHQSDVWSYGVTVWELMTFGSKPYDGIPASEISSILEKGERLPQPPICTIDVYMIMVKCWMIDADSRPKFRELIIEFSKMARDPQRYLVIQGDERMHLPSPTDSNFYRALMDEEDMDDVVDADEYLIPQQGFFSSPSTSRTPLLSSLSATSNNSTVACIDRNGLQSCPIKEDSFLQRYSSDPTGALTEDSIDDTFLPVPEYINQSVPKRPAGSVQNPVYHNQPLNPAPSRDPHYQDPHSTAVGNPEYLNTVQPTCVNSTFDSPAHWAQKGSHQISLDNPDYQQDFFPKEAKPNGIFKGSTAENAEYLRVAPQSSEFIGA

As to `CC(C)c1cc(C=C2C(=O)Nc3c(Br)cc(Br)cc32)cc(C(C)C)c1O` [10724/A06], the “PDGF Kinase %Inhibition” value on PDGF-R is 30.7%. In addition, the “Biochem EGFR %Inhibition” value on EGFR is given as 1.4%. The “Met Kinase % Inhibition” value with MET was 46.8%.
Taken in the same sequence, the figures for `O=C1Nc2ccc(S(=O)(=O)Nc3ccc(C(F)(F)F)cc3)cc2C1=Cc1cccn1-c1ccc(Cl)cc1` [10724/E09] were 21.0%, 6.3% and 27.0%.
Taken in the same sequence, the figures for `CCc1ccc(C=C2C(=O)Nc3ccc(CCCl)cc32)o1` [10724/G10] were -15.9%, -10.6% and 62.8%.
In the same order, the values of `Cc1c(Br)ccc2c1C(=Cc1cc3c4c(c1O)CCCN4CCC3)C(=O)N2` [10724/C05] are 20.3%, -0.8% and 67.7%.
Take `Cc1csc2sc(C=C3C(=O)Nc4ccc(S(=O)(=O)Nc5ccc(C(F)(F)F)cc5)cc43)c(C)c12` [10724/E11]: the “PDGF Kinase %Inhibition” value at PDGF-R was 5.0%. Besides, the “Biochem EGFR %Inhibition” value at EGFR is -26.8%. Besides, the “Met Kinase % Inhibition” value in the experiment with MET came to 39.3%.
Taken in the same sequence, the figures for `CC(C)c1cc(C=C2C(=O)Nc3ccc(CCCl)cc32)cc(C(C)C)c1O` [10724/G06] were -6.9%, 3.2% and 20.3%.
In the same order, the values of `O=C1Nc2ccc(CCCl)cc2C1=Cc1ccc(O)c([N+](=O)[O-])c1` [10724/G03] are -2.7%, 7.8% and 36.7%.
In the same order, the values of `CNS(=O)(=O)c1ccc2c(c1)C(=Cc1sc3scc(C)c3c1C)C(=O)N2` [10724/D11] are 29.3%, 12.9% and 20.3%.
With `CCc1ccc(C=C2C(=O)Nc3ccc(I)cc32)o1` [10724/B10], on PDGF-R, the “PDGF Kinase %Inhibition” value is recorded as 9.8%. Moreover, the “Biochem EGFR %Inhibition” value on EGFR was found to be 76.2%. Besides, in the experiment on MET, the “Met Kinase % Inhibition” value was 95.0%.
Taken in the same sequence, the figures for `Cc1csc2sc(C=C3C(=O)Nc4ccc(CCCl)cc43)c(C)c12` [10724/G11] were -29.1%, -29.5% and 11.2%.
Turning to `O=C1Nc2ccc(S(=O)(=O)Nc3ccc(C(F)(F)F)cc3)cc2C1=Cc1cc2c3c(c1O)CCCN3CCC2` [10724/E05], the “PDGF Kinase %Inhibition” value on PDGF-R is given as -7.6%. Also, the “Biochem EGFR %Inhibition” value on EGFR was determined as 0.5%. For the same molecule, the “Met Kinase % Inhibition” value with MET turned out to be 70.3%.
Take `O=C1Nc2ccc(I)cc2C1=Cc1ccc(N2CCOCC2)cc1` [10725/B08]: the “PDGF Kinase %Inhibition” value at PDGF-R was 29.4%. Moreover, the “Biochem EGFR %Inhibition” value on EGFR is on record as 41.8%. Moreover, the “Met Kinase % Inhibition” value in the experiment with MET is recorded as 66.7%.
In the same order, the values of `O=C1Nc2ccc(CCCl)cc2C1=Cc1cc2ccccc2o1` [10724/G07] are -41.6%, -11.7% and 2.3%.
Taken in the same sequence, the figures for `Cc1cc(C=C2C(=O)Nc3c(Br)cc(Br)cc32)[nH]n1` [10725/A05] were 13.1%, 7.9% and 47.5%.
Consider `Cc1c(Br)cc(Br)c2c1C(=Cc1c[nH]cn1)C(=O)N2` [10725/A11], for which the “PDGF Kinase %Inhibition” value at PDGF-R worked out at 18.9%. The “Biochem EGFR %Inhibition” value at EGFR is 14.6%. Also, the “Met Kinase % Inhibition” value in the experiment with MET is 49.1%.
Taken in the same sequence, the figures for `CCc1ccc(C=C2C(=O)Nc3ccc(S(=O)(=O)NC)cc32)o1` [10724/D10] were 38.3%, 12.7% and 59.6%.
In the same order, the values of `COC(=O)Cc1c(Cl)[nH]c(C=C2C(=O)Nc3c(Br)cc(Br)c(C)c32)c1C(=O)OC` [10725/A09] are 29.4%, 4.9% and 44.3%.
In the same order, the values of `COC(=O)Cc1c(Cl)[nH]c(C=C2C(=O)Nc3ccc(I)cc32)c1C(=O)OC` [10725/B09] are 43.8%, 72.3% and 65.7%.
Turning to `O=CN1CCN(c2ccc(C=C3C(=O)Nc4c(Br)cc(Br)cc43)cc2)CC1` [10725/A07], the “PDGF Kinase %Inhibition” value on PDGF-R turned out to be 17.9%. Further, the “Biochem EGFR %Inhibition” value on EGFR was 18.2%. Besides, the “Met Kinase % Inhibition” value with MET is listed as 59.3%.
As for `O=C1Nc2ccc(I)cc2C1=Cc1cccn1-c1ccc(Cl)cc1` [10724/B09], at PDGF-R, the “PDGF Kinase %Inhibition” value was 25.8%. Also, at EGFR, the “Biochem EGFR %Inhibition” value is 8.7%. For the same molecule, the “Met Kinase % Inhibition” value in the experiment with MET was 43.8%.
Taken in the same sequence, the figures for `CN(C)c1ccc(C=C2C(=O)Nc3c(Br)cc(Br)cc32)c2ccccc12` [10724/A02] were 6.3%, 36.7% and 61.7%.
For `CN(C)c1ccc(C=C2C(=O)Nc3ccc(CCCl)cc32)c2ccccc12` [10724/G02], the “PDGF Kinase %Inhibition” value at PDGF-R was -7.6%. Moreover, at EGFR, the “Biochem EGFR %Inhibition” value is recorded as 42.5%. Further, the “Met Kinase % Inhibition” value in the experiment on MET was found to be 44.9%.
In the same order, the values of `Cc1c(Br)ccc2c1C(=Cc1ccc([N+](=O)[O-])c(O)c1)C(=O)N2` [10724/C04] are 24.4%, 13.2% and 84.3%.
Consider `O=C1Nc2ccc(S(=O)(=O)Nc3ccc(C(F)(F)F)cc3)cc2C1=Cc1cc2ccccc2o1` [10724/E07], for which, at PDGF-R, the “PDGF Kinase %Inhibition” value was 0.1%. Besides, on EGFR, the “Biochem EGFR %Inhibition” value is 9.4%. Besides, the “Met Kinase % Inhibition” value in the experiment with MET came out at 46.8%.
Taken in the same sequence, the figures for `Cc1c(Br)ccc2c1C(=Cc1cccn1-c1ccc(Cl)cc1)C(=O)N2` [10724/C09] were 20.3%, 1.0% and 5.3%.
Taken in the same sequence, the figures for `CCc1ccc(C=C2C(=O)Nc3ccc(Br)c(C)c32)o1` [10724/C10] were 27.2%, 13.8% and 91.2%.
In the same order, the values of `CNS(=O)(=O)c1ccc2c(c1)C(=Cc1cccn1-c1ccc(Cl)cc1)C(=O)N2` [10724/D09] are 18.9%, -15.3% and 16.1%.
`O=C1Nc2ccc(CCCl)cc2C1=Cc1ccc([N+](=O)[O-])c(O)c1` [10724/G04]: the “PDGF Kinase %Inhibition” value on PDGF-R was -12.4%. Further, at EGFR, the “Biochem EGFR %Inhibition” value worked out at 12.9%. In addition, the “Met Kinase % Inhibition” value with MET is 71.0%.
Taken in the same sequence, the figures for `COc1ccc(Br)c(C=C2C(=O)Nc3ccc(I)cc32)c1O` [10725/B03] were 7.8%, -15.3% and 70.8%.
In the same order, the values of `O=C1Nc2ccc(CCCl)cc2C1=Cc1cccc(Br)c1` [10723/G10] are -27.8%, -4.1% and 40.7%.
In the same order, the values of `CN(C)c1ccc(C=C2C(=O)Nc3ccc(S(=O)(=O)Nc4ccc(C(F)(F)F)cc4)cc32)c2ccccc12` [10724/E02] are -54.2%, 39.8% and 55.4%.
Turning to `Cc1c(Br)ccc2c1C(=Cc1sc3scc(C)c3c1C)C(=O)N2` [10724/C11], the “PDGF Kinase %Inhibition” value on PDGF-R is recorded as 23.0%. The “Biochem EGFR %Inhibition” value on EGFR is given as 0.7%. For the same molecule, the “Met Kinase % Inhibition” value in the experiment with MET was 4.9%.
Taken in the same sequence, the figures for `O=C1Nc2c(Br)cc(Br)cc2C1=Cc1cccn1-c1ccc(Cl)cc1` [10724/A09] were 19.6%, 1.6% and 37.5%.
In the same order, the values of `COc1ccc(Br)c(C=C2C(=O)Nc3c(Br)cc(Br)cc32)c1O` [10725/A03] are 5.9%, -38.2% and 68.0%.
Turning to `O=C1Nc2ccc(I)cc2C1=Cc1cc2ccccc2o1` [10724/B07], the “PDGF Kinase %Inhibition” value on PDGF-R was determined as 27.2%. Moreover, at EGFR, the “Biochem EGFR %Inhibition” value is 44.0%. Also, the “Met Kinase % Inhibition” value in the experiment with MET was 57.9%.
Turning to `Cc1c(Br)ccc2c1C(=Cc1cc3ccccc3o1)C(=O)N2` [10724/C07], the “PDGF Kinase %Inhibition” value at PDGF-R was 22.3%. The “Biochem EGFR %Inhibition” value at EGFR was found to be 9.4%. Moreover, the “Met Kinase % Inhibition” value in the experiment on MET turned out to be 14.2%.
Taken in the same sequence, the figures for `CNS(=O)(=O)c1ccc2c(c1)C(=Cc1ccc(O)c([N+](=O)[O-])c1)C(=O)N2` [10724/D03] were -15.2%, 2.5% and 18.2%.
In the case of `O=C1Nc2ccc(I)cc2C1=Cc1ccc(O)c([N+](=O)[O-])c1` [10724/B03], the “PDGF Kinase %Inhibition” value on PDGF-R turned out to be 14.7%. Also, the “Biochem EGFR %Inhibition” value on EGFR is 14.9%. In addition, the “Met Kinase % Inhibition” value with MET is 51.0%.
For `O=C1Nc2c(Br)cc(Br)cc2C1=Cc1ccc(N2CCOCC2)cc1` [10725/A08], the “PDGF Kinase %Inhibition” value on PDGF-R is reported as 14.1%. Moreover, the “Biochem EGFR %Inhibition” value at EGFR worked out at 10.9%. Also, the “Met Kinase % Inhibition” value with MET amounted to 45.3%.
